# Marks after values point to notes of the source that are not given here.
# Assays:
# Format in all cases: biochemical
# Aβ 1-42 amyloid fibrils = assay: Thioflavin T fluorometry: disassembly/disruption of pre-formed Aβ 1-42 amyloid fibrils; details: for Fluorescence inhibition, %, at the Aβ 1-42:compound w/w ratios given: overnight (~18 hours) at 37°C, pH 7.0, mean of triplicate ± standard deviation
# Procedure: For the first study, 1 mg of Aβ 1-42 (Bachem Inc., Torrance, CA, USA) was dissolved in 1.0 ml of double distilled water (1 mg/ml solution). 25 µM of Aβ 1-42 was then incubated overnight (~18 hours) at 37°C, in the absence or presence of 100µg/ml of the following compounds: 1) EDTA (Sigma Chemical Company, St. Louis, MO, USA), 2) myricetin (Acros, Somerville, New Jersey, USA), 3) exifone (Acros) 4) pyrogallol (Sigma), 5) tannic acid (Acros), 6) pyrocatechol (Acros), 7) quercetin (Sigma), 8) ellagic acid (Acros), 9) 1,2,4-benzenetriol (Acros), 10) 5-hydroxydopamine (Acros), 11) gallamide hydrate (Acros), 12) gallic acid (Sigma), 13) ethyl gallate (Acros), 14) quinic acid (Acros), 15) propyl gallate (Sigma), and 16) phloroglucide (Acros), each in the presence of 150 mM Tris HCl, 10 mM NaCl (pH 7.0) with 0.02% sodium azide. In this study, the Aβ 1-42:compound weight ratio was 1:1.
# For the second study, 1 mg of Aβ 1-42 (Bachem) was dissolved in 1.0 ml of double distilled water (1 mg/ml solution). 25 µM of Aβ 1-42 was then incubated overnight (~18 hours) at 37°C, in the absence or presence of 50µg/ml of the following compounds: 1) gallic acid, 2) ethyl gallate, 3) quinic acid, 4) gallamide trihydrate, 5) ellagic acid, 6) propyl gallate, and 7) pyrogallol, each in the presence of 150 mM Tris HCl, 10 mM NaCl (pH 7.0) with 0.02% sodium azide. In this study, the Aβ 1-42:compound weight ratio was 2:1.
# Thioflavin T is known to bind to fibrillar amyloid proteins, and an increase in fluorescence correlates with an increase in amyloid fibril formation, whereas a decrease in fluorescence correlates with a decrease in amyloid fibrils due to disassembly and/or disruption. The Alzheimer's Aβ protein (1-42) when placed in solution, such as distilled water, tends to spontaneously form amyloid fibrils. Using this sensitive assay, any decreases or increases in fluorescence was previously shown to correlate with a decrease or increase in the amount of amyloid fibrils (see the documents cited above), allowing one to identify and quantitate the extent of potential inhibitors and/or enhancers of Alzheimer's Aβ 1-42 amyloid fibrils.
# To assess the effects of each compound on potential disassembly/ disruption of preformed Aβ 1-42 fibrils, 50 µl of Aβ 1-42 with or without test compounds (described above) were added to 1.2 ml of 100µM Thioflavin T (Sigma) in 50mM NaH2PO4 (pH 6.0) for fluorometry readings. […] Fluorescence emission at 482 nm was measured on a Turner instrument-model 450 fluorometer at an excitation wavelength of 450 nm. For each determination, the fluorometer was calibrated by zeroing in the presence of the Thioflavin T reagent alone, and by setting the 50 ng/ml riboflavin (Sigma Chemical Co., St. Louis, MO) in the Thioflavin T reagent to 1800 fluorescence units. All fluorescence determinations were based on these references and any fluorescence given off by any of the compounds in the presence of the Thioflavin T reagent was always subtracted from all pertinent readings.
# For all fibrillogenesis studies utilizing Thioflavin T fluorometry, as disclosed herein, comparisons of amyloid protein in the presence or absence of test compounds were based on paired Student's t tests with data shown as the mean of triplicate measurements ± standard deviation.
# Aβ 1-40 amyloid fibrils = assay: Modified Congo red-Aβ spectrophotometric assay: disaggregation of pre-formed Aβ 1-40 fibrils (3 days incubation); details: Aβ:compound weight ratio 2:1; fibrillized Aβ 1-40 incubated with compound 3 days at 37°C in TBS pH 7.0; Δ absorbance at 540 nm; triplicate
# Procedure: In this study, a Congo red-Aβ spectrophotometric assay (Klunk et al., Anal. Biochem. 266:66-76, 1999) was modified to determine the effectiveness of polyhydroxylated aromatic compounds on the disaggregation of pre-formed Aβ 1-40 amyloid fibrils. For this assay, 1 mg of Aβ 1-40 (Bachem) was incubated for 4 days in distilled water at 37°C to spontaneously produce amyloid fibrils. 25pM of fibrillized Aβ 1-40 was then incubated in triplicate with various test compounds for 3 days at 37°C in Tris-buffered saline (TBS)(100 mM Tris; 50 mM NaCl; pH 7.0, with 0.02% sodium azide), at an Aβ:compound weight ratio of 2:1. Following incubation, 50µl of 360 µM Congo red (Sigma) in distilled water was then added to 250 µl of each incubation mixture, giving a final Aβ:Congo red molar ratio of 1:3. After 10 minutes, the absorbance at 405 nm (reference wavelength to account for the absorbance of Congo red alone at 540 nm) and 540 nm (sample absorbance where "sample" refers to Aβ alone, test compound alone, or Aβ plus test compound, all in the presence of Congo red) was determined using a Biorad Model 550 BLISA Plate Reader (Biorad, Hercules, CA, USA). The absorbance at wavelength 405 nm was automatically subtracted by the ELISA plate reader from the absorbance at wavelength 540 nm (difference is referred to as Δ absorbance)(see Klunk et al. cited above). Therefore, the Δ absorbance reading at 540 nm was proportional to the amount of aggregated Aβ left in solution (Klunk et al.).
# For all experiments involving test compounds, the Δ absorbance reading at 540 nm of the test compound alone (in the absence of Aβ), was always subtracted from the corresponding Δ absorbance reading at 540 nm of the test compound in the presence of Aβ. Using this modification of the method of Klunk et al., the use of a greater final concentration of Congo red, i.e. 60µM instead of 14µM, in the presence of fibrillar Aβ gave an overall absorbance at 540 nm that was always below 1.0 Absorbance Unit (AU), and well within the linear absorbance range.
# The following polyhydroxylated aromatic containing compounds were tested using the above described Congo red-Aβ spectrophotometric assay to determine their effectiveness on disaggregation of pre-formed Aβ 1-40 amyloid fibrils: 1) gallic acid, 2) ethyl gallate, 3) quinic acid, 4) gallamide trihydrate, 5) ellagic acid, 6) propyl gallate, and 7) pyrogallol.
# human amylin [1] = target: T1, human amylin (Homo sapiens, UniProt P10997); assay: Thioflavin T fluorometry: disassembly/disruption of islet amyloid (amylin) fibrils; details: 25 µM human amylin, 100µg/ml compound, amylin:compound weight ratio 1:1, overnight (~18 hours) at 37°C, pH 7.0; read-out: Fluorescence inhibition, %
# T1 construct: This amyloid protein involved consists of a 37 amino acid protein known as islet amyloid polypeptide or amylin; purchased Bachem
# T1 sequence (P10997 34-70 limits assumed): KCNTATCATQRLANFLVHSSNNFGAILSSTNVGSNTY
# human amylin [2] = target: T1, human amylin; assay: Congo red staining of amylin fibrils on gelatin-coated slides (polarized light); details: result in words; amylin + compound after overnight incubation, compared with amylin alone
# Procedure: Following Thioflavin T fluorometry readings as described in Example 1, 5µl aliquots of amylin only, amylin + myricetin, amylin + exifone, and amylin + tannic acid were also taken, allowed to air dry overnight on gelatin-coated slides, and stained with Congo red as previously described (Castillo et al., Diabetes 47:612-620, 1998).
# [3] = Aβ 1-42:compound w/w ratio 2:1, 25 µM Aβ 1-42, 50µg/ml compound
# [4] = Aβ 1-42:compound w/w ratio 1:1, 25 µM Aβ 1-42, 100µg/ml compound
Compound,"Fluorescence inhibition, %, at the Aβ 1-42:compound w/w ratios given (Aβ 1-42 amyloid fibrils; [3])","Decrease in absorbance, % (Aβ 1-40 amyloid fibrils)",also measured
"O=C(O)CN(CCN(CC(=O)O)CC(=O)O)CC(=O)O [EDTA, reference compound]",,,"disassembly/disruption of Aβ 1-42 amyloid fibrils (Aβ 1-42 amyloid fibrils; result in words, 100µg/ml compound, 25 µM Aβ 1-42, weight ratio 1:1, overnight at 37°C): no significant disassembly/disruption"
"O=c1oc2c(O)c(O)cc3c(=O)oc4c(O)c(O)cc1c4c23 [Ellagic acid, ellagic acid]",62 ± 3.9%,54 ± 2.8%,
"CCOC(=O)c1cc(O)c(O)c(O)c1 [Ethyl gallate, ethyl gallate]",30 ± 3.7%,28 ± 5.0%,
"O=C(c1cc(O)c(O)c(O)c1)c1ccc(O)c(O)c1O [Exifone, exifone]",,,"Fluorescence inhibition, %, at the Aβ 1-42:compound w/w ratios given (Aβ 1-42 amyloid fibrils; [4]): 93 ± 1.4%; inhibition at 100 µg/mL (human amylin [1]): 99.1 ± 0.5%; Congo red staining (human amylin [2]): marked decrease in Congo red staining"
"NC(=O)c1cc(O)c(O)c(O)c1.O.O.O [Gallamide trihydrate, gallamide trihydrate]",60 ± 2.2%,31 ± 1.9%,
"O=c1c(O)c(-c2cc(O)c(O)c(O)c2)oc2cc(O)cc(O)c12 [Myricetin, myricetin]",,,inhibition at 100 µg/mL (human amylin [1]): 97.4 ± 0.3%; Congo red staining (human amylin [2]): marked decrease in Congo red staining
"Oc1cc(O)cc(-c2c(O)cc(O)cc2O)c1 [Phloroglucide, phloroglucide]",,,"Fluorescence inhibition, %, at the Aβ 1-42:compound w/w ratios given (Aβ 1-42 amyloid fibrils; [4]): 30 ± 0.6%"
"CCCOC(=O)c1cc(O)c(O)c(O)c1 [Propyl gallate, propyl gallate]",38 ± 4.8%,17 ± 7.3 %,
"Oc1cccc(O)c1O [Pyrogallol, pyrogallol]",72 ± 3.8%,63 ± 3.4%,
"O=C(O)[C@]1(O)C[C@@H](O)[C@@H](O)[C@H](O)C1 [Quinic acid, quinic acid]",0.5 ± 3.9 %,0 + 5.0** %,

# — patent EP1808169B1, “Polyhydroxylated aromatic compounds for the treatment of amyloidosis and alpha-synuclein fibril diseases” (priority 1999, dated 2001)
